Measurements reported in paper PMC4281523 (Pharmaceutical research, 2013).

Tests used:
[1] = cited from earlier work
[2] = Drug release from SEDDS during in vitro digestion, EPR; type: physicochemical
[3] = type: physicochemical
[4] = type: physicochemical; details: soybean oil in fed state medium, absence of lipolysis

Compound | logP [1] | time of leveling off of drug release [2] [min] | percentage of released drug from SEDDS ([3]; 90 minutes, absence of digestion) [%] | drug released from SEDDS ([3]; over 18 hours, absence of digestive enzyme) [%] | octanol/water partition coefficient (log P) [1] | TB uptake constant into oil, Prel [4] [×10⁻⁶ cm/s]
CC(C)(Sc1cc(C(C)(C)C)c(O)c(C(C)(C)C)c1)Sc1cc(C(C)(C)C)c(O)c(C(C)(C)C)c1 [Probucol] | 8.92 |  |  |  |  | 
CC1(C)CC(OC(=O)c2ccccc2)CC(C)(C)N1[O] [TB, TEMPOL benzoate] |  | 50 | 9 | 14 | 2.46 | 0.0352
